pKi: −log10 of the molar value.
Columns and labels:
Carbonic anhydrase 1 = Carbonic anhydrase 1 (Homo sapiens, UniProt P00915)
Description: Inhibitory activity against human carbonic anhydrase I (hCA I)

Carbonic anhydrase 2 = Carbonic anhydrase 2 (Homo sapiens, UniProt P00918)
Description: Inhibitory activity against human carbonic anhydrase II

Carbonic anhydrase 4 = molecular target: T1, Carbonic anhydrase 4 (Bos taurus, UniProt Q95323)
T1 sequence (Q95323 whole entry): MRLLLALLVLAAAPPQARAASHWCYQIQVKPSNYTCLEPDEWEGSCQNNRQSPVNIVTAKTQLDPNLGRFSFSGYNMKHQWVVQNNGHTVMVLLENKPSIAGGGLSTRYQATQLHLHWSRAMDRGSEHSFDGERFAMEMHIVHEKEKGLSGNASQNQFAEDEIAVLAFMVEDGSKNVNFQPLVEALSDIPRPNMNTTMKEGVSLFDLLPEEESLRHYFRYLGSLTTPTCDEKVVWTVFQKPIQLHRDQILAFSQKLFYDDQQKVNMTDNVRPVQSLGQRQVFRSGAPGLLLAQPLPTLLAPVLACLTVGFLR
Description: Inhibitory activity against Carbonic anhydrase IV isolated from bovine lung

Oryctolagus cuniculus [1] = organism: Oryctolagus cuniculus
Description: Fall of intraocular pressure (IOP) after treatment with 50 ug into normotensive rabbit at time interval 90 min at a pH of 7

Oryctolagus cuniculus [2] = organism: Oryctolagus cuniculus; remark: listed apart in the source
Description: Fall of intraocular pressure (IOP) after treatment with 50 ug into normotensive rabbit at time interval 240 min at a pH of 7

Oryctolagus cuniculus [3] = organism: Oryctolagus cuniculus; remark: listed apart in the source
Description: Fall of intraocular pressure (IOP) after treatment with 50 ug into normotensive rabbit at time interval 30 min at a pH of 7

Oryctolagus cuniculus [4] = organism: Oryctolagus cuniculus; remark: listed apart in the source
Description: Fall of intraocular pressure (IOP) after treatment with 50 ug into normotensive rabbit at time interval 60 min at a pH of 7

Chain of Carbonic anhydrase 1 (P00915 whole entry): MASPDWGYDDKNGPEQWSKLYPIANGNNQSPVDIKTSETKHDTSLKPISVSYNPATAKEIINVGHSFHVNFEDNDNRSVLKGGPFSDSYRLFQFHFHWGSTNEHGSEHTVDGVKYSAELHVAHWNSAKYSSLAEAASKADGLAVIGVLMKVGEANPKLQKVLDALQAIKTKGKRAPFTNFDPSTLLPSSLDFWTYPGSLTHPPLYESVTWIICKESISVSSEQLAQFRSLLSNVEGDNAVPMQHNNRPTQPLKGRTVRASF

| Compound | pKi (Carbonic anhydrase 1) | pKi (Carbonic anhydrase 2) | pKi (Carbonic anhydrase 4) | Delta IOP (Oryctolagus cuniculus [1]) [mmHg] | Delta IOP (Oryctolagus cuniculus [2]) [mmHg] | Delta IOP (Oryctolagus cuniculus [3]) [mmHg] | Delta IOP (Oryctolagus cuniculus [4]) [mmHg] |
| --- | --- | --- | --- | --- | --- | --- | --- |
| COCCOC(=O)c1ccc(S(=O)(=O)Nc2nnc(S(N)(=O)=O)s2)cc1 | 7.92 | 8.55 | 8.00 | – | – | – | – |
| CCN(CC)CCNC(=O)c1cccc(S(=O)(=O)/N=c2/sc(S(N)(=O)=O)nn2C)c1 | 7.80 | 8.72 | 8.15 | – | – | – | – |
| CN(C)CCOC(=O)c1cccc(S(=O)(=O)Nc2nnc(S(N)(=O)=O)s2)c1 | 7.82 | 8.68 | 8.15 | 7.1 | 5.7 | 4.5 | 4.9 |
| COCCOC(=O)c1cccc(S(=O)(=O)/N=c2/sc(S(N)(=O)=O)nn2C)c1 | 7.77 | 8.48 | 8.05 | – | – | – | – |
| CN(C)CCOCCOC(=O)c1ccc(S(=O)(=O)Nc2nnc(S(N)(=O)=O)s2)cc1 | 7.92 | 8.89 | 8.15 | 5.7 | 6.3 | 2.7 | 3.9 |
| CC(=O)/N=c1/sc(S(N)(=O)=O)nn1C [METHAZOLAMIDE] | – | – | 6.84 | – | – | – | – |
| CN(C)CCOC(=O)c1ccc(S(=O)(=O)Nc2nnc(S(N)(=O)=O)s2)cc1 | 7.96 | 8.82 | 8.00 | 8 | 7.6 | 4.5 | 5.5 |
| NS(=O)(=O)c1nnc(NS(=O)(=O)c2cccc(C(=O)O)c2)s1 | 7.17 | 8.29 | 7.89 | – | – | – | – |
| NS(=O)(=O)c1nnc(NS(=O)(=O)c2ccccc2)s1 [BENZOLAMIDE] | – | – | 7.92 | – | – | – | – |
| CCN(CC)CCNC(=O)c1cccc(S(=O)(=O)Nc2nnc(S(N)(=O)=O)s2)c1 | 7.85 | 8.77 | 8.15 | 9.1 | 8 | 6.5 | 6.9 |
| Cn1nc(S(N)(=O)=O)s/c1=N/S(=O)(=O)c1cccc(C(=O)O)c1 | 7.14 | 8.23 | 7.82 | – | – | – | – |
| NS(=O)(=O)c1nnc(NS(=O)(=O)c2ccc(C(=O)O)cc2)s1 | 7.35 | 8.34 | 7.92 | – | – | – | – |
| COCCOC(=O)c1cccc(S(=O)(=O)Nc2nnc(S(N)(=O)=O)s2)c1 | 7.82 | 8.54 | 8.10 | 2 | 0 | 6 | 2.5 |
| NS(=O)(=O)c1nnc(NS(=O)(=O)c2ccc(C(=O)OCCO)cc2)s1 | 7.85 | 8.54 | 7.96 | – | – | – | – |
| Cn1nc(S(N)(=O)=O)s/c1=N/S(=O)(=O)c1cccc(C(=O)OCCO)c1 | 7.64 | 8.28 | 8.00 | – | – | – | – |
| CN(C)CCOCCOC(=O)c1cccc(S(=O)(=O)Nc2nnc(S(N)(=O)=O)s2)c1 | 7.89 | 8.80 | 8.22 | 4.1 | 3.3 | 4.9 | 4.5 |
| NS(=O)(=O)c1nnc(NS(=O)(=O)c2cccc(C(=O)OCCO)c2)s1 | 7.80 | 8.51 | 8.10 | 2.8 | 0.5 | 10.5 | 4.8 |

Further lines, with some results ahead:

| pKi (Carbonic anhydrase 1) | pKi (Carbonic anhydrase 2) | pKi (Carbonic anhydrase 4) | Compound | Delta IOP (Oryctolagus cuniculus [1]) [mmHg] | Delta IOP (Oryctolagus cuniculus [2]) [mmHg] | Delta IOP (Oryctolagus cuniculus [3]) [mmHg] | Delta IOP (Oryctolagus cuniculus [4]) [mmHg] |
| --- | --- | --- | --- | --- | --- | --- | --- |
| 7.89 | 8.62 | 7.85 | CN(C)CCOC(=O)c1ccc(S(=O)(=O)/N=c2/sc(S(N)(=O)=O)nn2C)cc1 | – | – | – | – |
| 7.70 | 8.40 | 7.85 | Cn1nc(S(N)(=O)=O)s/c1=N/S(=O)(=O)c1ccc(C(=O)OCCO)cc1 | – | – | – | – |
| 7.82 | 8.74 | 7.89 | CC(CN(C)C)OC(=O)c1ccc(S(=O)(=O)/N=c2/sc(S(N)(=O)=O)nn2C)cc1 (stereo unspecified) | – | – | – | – |
| 7.82 | 8.70 | 8.10 | CN(C)CCOCCOC(=O)c1cccc(S(=O)(=O)/N=c2/sc(S(N)(=O)=O)nn2C)c1 | – | – | – | – |
| 7.89 | 8.77 | 8.05 | CN(C)CCOCCOC(=O)c1ccc(S(=O)(=O)/N=c2/sc(S(N)(=O)=O)nn2C)cc1 | – | – | – | – |
| 7.80 | 8.51 | 7.92 | COCCOC(=O)c1ccc(S(=O)(=O)/N=c2/sc(S(N)(=O)=O)nn2C)cc1 | – | – | – | – |
| 7.89 | 8.85 | 8.00 | CC(CN(C)C)OC(=O)c1ccc(S(=O)(=O)Nc2nnc(S(N)(=O)=O)s2)cc1 (stereo unspecified) | 8.2 | 8 | 4.8 | 5.9 |
| 7.92 | 8.77 | 8.10 | CCN(CC)CCNC(=O)c1ccc(S(=O)(=O)/N=c2/sc(S(N)(=O)=O)nn2C)cc1 | – | – | – | – |
| 7.74 | 8.66 | 7.92 | CC(CN(C)C)OC(=O)c1cccc(S(=O)(=O)/N=c2/sc(S(N)(=O)=O)nn2C)c1 (stereo unspecified) | – | – | – | – |
| 7.30 | 8.27 | 7.85 | Cn1nc(S(N)(=O)=O)s/c1=N/S(=O)(=O)c1ccc(C(=O)O)cc1 | – | – | – | – |
| 7.77 | 8.70 | 8.10 | CC(CN(C)C)OC(=O)c1cccc(S(=O)(=O)Nc2nnc(S(N)(=O)=O)s2)c1 (stereo unspecified) | 8.5 | 7.9 | 2.5 | 6.7 |
| 7.80 | 8.54 | 8.00 | CN(C)CCOC(=O)c1cccc(S(=O)(=O)/N=c2/sc(S(N)(=O)=O)nn2C)c1 | – | – | – | – |
